Results reported in patent US20230192608A1, “WATER-SOLUBLE, MODIFIED AMINO ACID DERIVATIVES FOR TREATMENT OF NEUROLOGICAL DISEASES, AND SELECTED PSYCHIATRIC DISORDERS” (Uniwersytet Jagiellonski, priority 2020, published 2023).
Marks after values point to notes of the source that are not given here.

Tests used:
[1] = tested on: male white Swiss mice (CD-1); assay: Maximal electroshock test (MES), screening; type: in vivo; details: 100 mg/kg intraperitoneal, time point 0.5 h
Description: (§1) The studies were carried out on male white Swiss mice (CD-1) weighing 18-26 g. All procedures were performed in accordance with the applicable Polish and international guidelines for the ethics of animal research, after obtaining of the appropriate institutional consent. […] Screening tests were performed in groups consisted of 4 mice. All tests were performed according to the procedures described in the specialist literature: maximal electroshock test (MES) (Kamiński et al. Bioorg. Med. Chem. 2015, 23, 2548-2561; Castel-Branco et al. Pharmacol. 2009, 31, 101-106, Riban et al. Neurosci. 2002, 112, 101-111); psychomotor seizure test (6 Hz, 32 mA) (Barton et al. Epilepsy Res. 2001, 47, 217-227; Wojda et al. Epilepsy Res. 2009, 86, 163-174); subcutaneous pentylenetetrazole test (scPTZ) (Ferreri et al. Pharmacol. Biochem. Behav. 2004, 77, 85-94).

[2] = tested on: male white Swiss mice (CD-1); assay: Psychomotor seizure test (6 Hz, 32 mA), screening; type: in vivo; details: 100 mg/kg intraperitoneal, time point 0.5 h
Description: as §1

[3] = tested on: male white Swiss mice (CD-1); assay: Subcutaneous pentylenetetrazole test (scPTZ), screening; type: in vivo; details: 100 mg/kg intraperitoneal, time point 0.5 h
Description: as §1

[4] = Water solubility test at 25° C. per 1 gram of compound (European Pharmacopoeia 10.0 / Polish Pharmacopoeia XII); details: for The volume of water required for dissolution of 1 g of the substance at 25° C.: 1 g of compound, maximum volume of water used 100 mL; for Matching term (solubility in water, pharmacopoeial terminology): European Pharmacopoeia 10.0 / Polish Pharmacopoeia XII
[5] = tested on: male white Swiss mice (CD-1); assay: Anticonvulsant screening summarised over MES, scPTZ and 6 Hz (32 mA) models; type: in vivo; details: screening data of Table 3, 100 mg/kg intraperitoneal
Description: as §1
These models are recognized as the most important and widely used pharmacological tests allowing the identification of candidates for new antiepileptic drugs. […] This is crucial in situations requiring immediate intervention to stop seizures, including, e.g status epilpepticus, which is considered as a life-threatening situation.

[6] = tested on: male white Swiss mice (CD-1); details: model AED, comparison; cited from earlier work
[7] = tested on: male white Swiss mice (CD-1); details: model AED, comparison; cited from earlier work; remark: listed apart in the source

What does the source list for `CC(C(=O)NCc1ccccc1)N1C(=O)CCC1=O` (racemic) [(2R,S)-1, reference compound]?
MES: number of mice protected/number of mice tested [1]: 3/4; 6 Hz (32 mA): number of mice protected/number of mice tested [2]: 3/4; scPTZ: number of mice protected/number of mice tested [3]: 2/4; The volume of water required for dissolution of 1 g of the substance at 25° C. [4]: >100^c mL; Matching term (solubility in water, pharmacopoeial terminology) [4]: Slightly soluble

With `CC(C(=O)NCc1ccccc1F)N1C(=O)CCC1=O` (racemic) [(2R,S)-2, reference compound] as the compound, how does the “MES: number of mice protected/number of mice tested” value [1] read?
The value was 3/4.

What about the “6 Hz (32 mA): number of mice protected/number of mice tested” value [2] of the same compound?
Its value is 3/4.

And the “scPTZ: number of mice protected/number of mice tested” value [3]?
The value was 3/4.

What about the “The volume of water required for dissolution of 1 g of the substance at 25° C.” value (“The volume of water required” for short) [4] of the same compound?
Its value is >100^c mL.

What about the “Matching term (solubility in water, pharmacopoeial terminology)” value [4] of the same compound?
Its value is “Slightly soluble”.

With `C[C@H](C(=O)NCc1ccccc1)N1C(=O)CCC1=O` [(2R)-1, reference compound] as the compound, how does the “MES: number of mice protected/number of mice tested” value [1] read?
Its value is 3/4.

What about the “6 Hz (32 mA): number of mice protected/number of mice tested” value [2] of the same compound?
The value was 4/4.

And the “scPTZ: number of mice protected/number of mice tested” value [3]?
The value was 3/4.

And the “The volume of water required” value [4]?
The value was >100^c mL.

What about the “Matching term (solubility in water, pharmacopoeial terminology)” value [4] of the same compound?
The value was “Slightly soluble”.

With `C[C@H](C(=O)NCc1ccccc1F)N1C(=O)CCC1=O` [(2R)-2, reference compound] as the compound, how does the “MES: number of mice protected/number of mice tested” value [1] read?
Its value is 4/4.

What about the “6 Hz (32 mA): number of mice protected/number of mice tested” value [2] of the same compound?
The value was 4/4.

And the “scPTZ: number of mice protected/number of mice tested” value [3]?
The value was 3/4.

And the “The volume of water required” value [4]?
Its value is >100^c mL.

What about the “Matching term (solubility in water, pharmacopoeial terminology)” value [4] of the same compound?
The value was “Slightly soluble”.

Which “MES: number of mice protected/number of mice tested” value [1] does the source give for `CC(C(=O)NCc1ccccc1F)N1CCCC1=O` [(2R,S)-4, (2R,S)-N-(2-fluorobenzyl)-2-(2-oxopyrrolidin-1-yl)propanamide] here?
Its value is 3/4.

And the “6 Hz (32 mA): number of mice protected/number of mice tested” value [2]?
The value was 3/4.

What about the “scPTZ: number of mice protected/number of mice tested” value [3] of the same compound?
The value was 2/4.

What about the “The volume of water required” value [4] of the same compound?
The value was 30 mL.

And the “Matching term (solubility in water, pharmacopoeial terminology)” value [4]?
Its value is “Soluble”.

With `C[C@@H](C(=O)NCc1ccccc1)N1C(=O)CCC1=O` [(2S)-1, reference compound] as the compound, how does the “MES: number of mice protected/number of mice tested” value [1] read?
The value was 1/4.

And the “6 Hz (32 mA): number of mice protected/number of mice tested” value [2]?
Its value is 4/4.

What about the “scPTZ: number of mice protected/number of mice tested” value [3] of the same compound?
The value was 2/4.

And the “The volume of water required” value [4]?
Its value is >100^c mL.

What about the “Matching term (solubility in water, pharmacopoeial terminology)” value [4] of the same compound?
The value was “Slightly soluble”.

Which “MES: number of mice protected/number of mice tested” value [1] does the source give for `C[C@@H](C(=O)NCc1ccccc1F)N1C(=O)CCC1=O` [(2S)-2, reference compound] here?
The value was 2/4.

And the “6 Hz (32 mA): number of mice protected/number of mice tested” value [2]?
The value was 2/4.

And the “scPTZ: number of mice protected/number of mice tested” value [3]?
Its value is 2/4.

What about the “The volume of water required” value [4] of the same compound?
The value was >100^c mL.

What about the “Matching term (solubility in water, pharmacopoeial terminology)” value [4] of the same compound?
Its value is “Slightly soluble”.

With `CC(C(=O)NCc1ccccc1)N1CCCC1=O` (stereo not shown) [Compound 3, N-benzyl-2-(2-oxopyrrolidin-1-yl)propanamide] as the compound, how does the “Matching term (solubility in water, pharmacopoeial terminology)” value [4] read?
Its value is “water-soluble substances”.

With `CC(C(=O)NCc1ccccc1F)N1CCCC1=O` (stereo not shown) [Compound 4, N-(2-fluorobenzyl)-2-(2-oxopyrrolidin-1-yl)propanamide] as the compound, how does the “Matching term (solubility in water, pharmacopoeial terminology)” value [4] read?
Its value is “water-soluble substances”.

For `CC(C(=O)NCc1ccccc1)N1C(=O)CC(N(C)C)C1=O` (stereo not shown) [Compound 5, N-benzyl-2-(3-(dimethylamino)-2,5-dioxopyrrolidin-1-yl)propanamide], which “Matching term (solubility in water, pharmacopoeial terminology)” value [4] is on record?
Its value is “substances easily soluble in water”.

With `CC(C(=O)NCc1ccccc1F)N1C(=O)CC(N(C)C)C1=O` (stereo not shown) [Compound 6] as the compound, how does the “Matching term (solubility in water, pharmacopoeial terminology)” value [4] read?
The value was “substances easily soluble in water”.

For `C[C@H](C(=O)NCc1ccccc1)N1CCCC1=O` [Compound (2R)-3, (2R)-N-benzyl-2-(2-oxopyrrolidin-1-yl)propanamide], which “MES: number of mice protected/number of mice tested” value [1] is on record?
Its value is 4/4.

What about the “6 Hz (32 mA): number of mice protected/number of mice tested” value [2] of the same compound?
Its value is 4/4.

And the “scPTZ: number of mice protected/number of mice tested” value [3]?
The value was 3/4.

What about the “Anticonvulsant activity (in words)” value [5] of the same compound?
The value was “potent anticonvulsant activity”.

What about the “The volume of water required” value [4] of the same compound?
Its value is 25 mL.

What about the “Matching term (solubility in water, pharmacopoeial terminology)” value [4] of the same compound?
The value was “Soluble”.

With `C[C@H](C(=O)NCc1ccccc1F)N1CCCC1=O` [Compound (2R)-4, (2R)-N-(2-fluorobenzyl)-2-(2-oxopyrrolidin-1-yl)propanamide] as the compound, how does the “MES: number of mice protected/number of mice tested” value [1] read?
The value was 4/4.

And the “6 Hz (32 mA): number of mice protected/number of mice tested” value [2]?
The value was 4/4.

What about the “scPTZ: number of mice protected/number of mice tested” value [3] of the same compound?
The value was 3/4.

And the “Anticonvulsant activity (in words)” value [5]?
The value was “potent anticonvulsant activity”.

And the “The volume of water required” value [4]?
Its value is 30 mL.

And the “Matching term (solubility in water, pharmacopoeial terminology)” value [4]?
Its value is “Soluble”.

Which “Anticonvulsant activity (in words)” value [5] does the source give for `C[C@H](C(=O)NCc1ccccc1)N1C(=O)CC(N(C)C)C1=O.Cl` (stereo partly drawn) [Compound (2R)-5 × HCl, (2R)-N-benzyl-2-(3-(dimethylamino)-2,5-dioxopyrrolidin-1-yl)propanamide hydrochloride] here?
Its value is “potent anticonvulsant activity”.

With `C[C@H](C(=O)NCc1ccccc1F)N1C(=O)CC(N(C)C)C1=O.Cl` (stereo partly drawn) [Compound (2R)-6 × HCl, (2R)-2-(3-(dimethylamino)-2,5-dioxopyrrolidin-1-yl)-N-(2-fluorobenzyl)propanamide hydrochloride] as the compound, how does the “Anticonvulsant activity (in words)” value [5] read?
Its value is “potent anticonvulsant activity”.

Which “MES: number of mice protected/number of mice tested” value [1] does the source give for `CC(C(=O)NCc1ccccc1)N1CCCC1=O` [Compound (2R,S)-3, (2R,S)-N-benzyl-2-(2-oxopyrrolidin-1-yl)propanamide] here?
The value was 3/4.

And the “6 Hz (32 mA): number of mice protected/number of mice tested” value [2]?
Its value is 4/4.

And the “scPTZ: number of mice protected/number of mice tested” value [3]?
Its value is 2/4.

And the “The volume of water required” value [4]?
The value was 25 mL.

What about the “Matching term (solubility in water, pharmacopoeial terminology)” value [4] of the same compound?
Its value is “Soluble”.

Which “MES: number of mice protected/number of mice tested” value [1] does the source give for `C[C@@H](C(=O)NCc1ccccc1)N1CCCC1=O` [Compound (2S)-3, (2S)-N-benzyl-2-(2-oxopyrrolidin-1-yl)propanamide] here?
The value was 2/4.

And the “6 Hz (32 mA): number of mice protected/number of mice tested” value [2]?
The value was 2/4.

What about the “scPTZ: number of mice protected/number of mice tested” value [3] of the same compound?
Its value is 2/4.

And the “The volume of water required” value [4]?
The value was 25 mL.

What about the “Matching term (solubility in water, pharmacopoeial terminology)” value [4] of the same compound?
The value was “Soluble”.

With `C[C@@H](C(=O)NCc1ccccc1F)N1CCCC1=O` [Compound (2S)-4, (2S)-N-(2-fluorobenzyl)-2-(2-oxopyrrolidin-1-yl)propanamide] as the compound, how does the “MES: number of mice protected/number of mice tested” value [1] read?
The value was 2/4.

What about the “6 Hz (32 mA): number of mice protected/number of mice tested” value [2] of the same compound?
Its value is 2/4.

What about the “scPTZ: number of mice protected/number of mice tested” value [3] of the same compound?
Its value is 2/4.

And the “The volume of water required” value [4]?
Its value is 30 mL.

And the “Matching term (solubility in water, pharmacopoeial terminology)” value [4]?
The value was “Soluble”.

With `CC[C@@H](C(N)=O)N1CCCC1=O` [levetiracetam] as the compound, how does the “Activity in MES test (in words)” value [6] read?
Its value is “inactive”.

And the “Activity in scPTZ test (in words)” value [7]?
The value was “inactive”.
